Laboratory results published in patent US11377425B1, “Small molecule modulators of IL-17” (LEO Pharma A/S, priority 2018, dated 2022).

Target: T1, human IL-17AA (Homo sapiens, UniProt Q16552)
T1 construct: host or cells: HEK (human embryonic kidney) cells
T1 sequence (Q16552 24-155): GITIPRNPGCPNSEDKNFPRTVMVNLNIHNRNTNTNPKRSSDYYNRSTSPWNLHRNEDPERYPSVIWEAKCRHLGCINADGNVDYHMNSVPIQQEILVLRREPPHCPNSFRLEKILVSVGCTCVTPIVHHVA
Assay: IL-8 release assay in human epithelial keratinocytes adult (HEKa)
Type: cell-based
Conditions: HEKa cells, 3 ng/mL HEK-human IL-17AA + 10 ng/mL human TNFalpha; read-out: Rel EC50 IL-8 release assay
In short: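 Adult human epidermal keratinocytes stimulated 68-72 h at 37 °C with 3 ng/mL HEK-derived human IL-17AA plus 10 ng/mL TNF-alpha (final) in the presence of compound; TNF-alpha alone defines 100% inhibition. Secreted IL-8 measured by HTRF as percent of controls; relative IC50/Emax from four-parameter fit (r^2>0.9), cytotoxicity by PrestoBlue.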

SMILES	EC50 [nM]
Cc1n[nH]c(C)c1-c1ccc(NC(=O)[C@@H](NC(=O)c2ccnn2C(CF)CF)C(C2CC2)C2CC2)cc1 [Example 217]	< 100
Cc1n[nH]c(C)c1-c1ccc(NC(=O)[C@@H](NC(=O)c2ccnn2C(C)CF)C(C2CC2)C2CC2)cc1 (stereo partly drawn) [Example 218, N-[(1S)-1-(dicyclopropylmethyl)-2-[4-(3,5-dimethyl-1H-pyrazol-4-yl)anilino]-2-oxo-ethyl]-2-(2-fluoro-methyl-ethyl)pyrazole-3-carboxamide]	< 100
Cc1n[nH]c(C)c1-c1ccc(NC(=O)[C@@H](NC(=O)c2ccnn2C)C(C)C2CCCCC2)cc1 (stereo partly drawn) [Example 220, N-[(1S)-2-cyclohexyl-1-[[4-(3,5-dimethyl-1H-pyrazol-4-yl)phenyl]carbamoyl]propyl]-2-methyl-pyrazole-3-carboxamide]	< 100
Cc1n[nH]c(C)c1-c1ccc(NC(=O)[C@@H](NC(=O)c2ccnn2C(C)C2CC2)C(C2CC2)C2CC2)cc1 (stereo partly drawn) [Example 222, 2-(1-cyclopropylethyl)-N-[(1S)-1-(dicyclopropylmethyl)-2-[4-(3,5-dimethyl-1H-pyrazol-4-yl)anilino]-2-oxo-ethyl]pyrazole-3-carboxamide]	< 100
Cc1n[nH]c(C)c1-c1ccc(NC(=O)[C@@H](NC(=O)c2ccnn2C)C2CCCCC2(C)C)cc1 (stereo partly drawn) [Example 230, N-[(1S)-1-(2,2-dimethylcyclohexyl)-2-[4-(3,5-dimethyl-1H-pyrazol-4-yl)anilino]-2-oxo-ethyl]-2-methyl-pyrazole-3-carboxamide]	< 100
Cc1n[nH]c(C)c1-c1ccc(NC(=O)C(NC(=O)c2ccnn2C)C2CC3CC3C2)cc1 [Example 233, N-[(1S)-1-[(1R,55)-3-bicyclo[3.1.0]2-[4-(3,5-dimethyl-1H-pyrazol-4-yl)anilino]-2-oxo-ethyl]-2-methyl-pyrazole-3-carboxamide]	100 to 1000

Other lines, results leading:

EC50 [nM]	SMILES
100 to 1000	Cc1n[nH]c(C)c1-c1ccc(NC(=O)[C@@H](NC(=O)c2ccn[nH]2)C(C2CC2)C2CC2)cc1 [Example 216, N-[(1S)-1-(dicyclopropylmethyl)-2-[4-(3,5-dimethyl-1H-pyrazol-4-yl)anilino]-2-oxo-ethyl]-1H-pyrazole-5-carboxamide]
< 100	Cc1n[nH]c(C)c1-c1ccc(NC(=O)[C@@H](NC(=O)c2ccnn2C2CCOC2)C(C2CC2)C2CC2)cc1 (stereo partly drawn) [Example 219, N-[(1S)-1-(dicyclopropylmethyl)-2-[4-(3,5-dimethyl-1H-pyrazol-4-yl)anilino]-2-oxo-ethyl]-2-tetrahydrofuran-3-yl-pyrazole-3-carboxamide]
> 1000	Cc1n[nH]c(C)c1-c1ccc(NC(=O)[C@H](CC2CCC2)NC(=O)c2ccnn2C)cc1 [Example 229, N-[(1S)-1-(cyclobutylmethyl)-2-[4-(3,5-dimethyl-1H-pyrazol-4-yl)anilino]-2-oxo-ethyl]-2-methyl-pyrazole-3-carboxamide]
< 100	Cc1n[nH]c(C)c1-c1ccc(NC(=O)[C@@H](NC(=O)c2ccnn2C)C2CCCC2(C)C)cc1 (stereo partly drawn) [Example 231, N-[(1S)-1-(2,2-dimethylcyclopentyl)-2-[4-(3,5-dimethyl-1H-pyrazol-4-yl)anilino]-2-oxo-ethyl]-2-methyl-pyrazole-3-carboxamide]
100 to 1000	Cc1n[nH]c(C)c1-c1ccc(NC(=O)[C@@H](NC(=O)c2ccnn2C)C2CCC(C)(C)CC2)cc1 [Example 238, N-[(1S)-1-(4,4-dimethylcyclohexyl)-2-[4-(3,5-dimethyl-1H-pyrazol-4-yl)anilino]-2-oxo-ethyl]-2-methyl-pyrazole-3-carboxamide]
100 to 1000	Cc1n[nH]c(C)c1-c1ccc(NC(=O)[C@@H](NC(=O)c2ccnn2C)[C@@H]2CCCC3(CC3)C2)cc1 [Example 241, N-[(1S)-2-[4-(3,5-dimethyl-1H-pyrazol-4-yl)anilino]-2-oxo-1-[(7R)-spiro[2.5]octan-7-yl]ethyl]-2-methyl-pyrazole-3-carboxamide]
